Measurements published in BindingDB's records for patent US20250325711 (Hoffmann-La Roche, 2025).

These molecules were tested against Cannabinoid receptor 2 (Homo sapiens, UniProt P34972) (assay: Competition Binding Assay).
Experimental: To determine the affinity of CB2R-specific ligands, we used a simple competition kinetic binding assay. This approach involves the simultaneous addition of both fluorescent ligand and competitor to the CB2R preparation. 62.5 nM 8-SiR, concentration which avoid ligand depletion in this assay volume, were added simultaneously with increasing concentrations of the unlabeled compound to CB2R cell membranes (4 μg per well) in 40 μL of assay buffer in a 384-well plate incubated at room temperature with orbital mixing. The degree of fluorescent ligand bound to the receptor was assessed at equilibrium by HTRF detection. Nonspecific binding was determined as the amount of HTRF signal detected in the presence of SR144528 (1 μM) and was subtracted from total binding, to calculate specific binding for construction of IC50 curves.

Chain of Cannabinoid receptor 2 (P34972 whole entry): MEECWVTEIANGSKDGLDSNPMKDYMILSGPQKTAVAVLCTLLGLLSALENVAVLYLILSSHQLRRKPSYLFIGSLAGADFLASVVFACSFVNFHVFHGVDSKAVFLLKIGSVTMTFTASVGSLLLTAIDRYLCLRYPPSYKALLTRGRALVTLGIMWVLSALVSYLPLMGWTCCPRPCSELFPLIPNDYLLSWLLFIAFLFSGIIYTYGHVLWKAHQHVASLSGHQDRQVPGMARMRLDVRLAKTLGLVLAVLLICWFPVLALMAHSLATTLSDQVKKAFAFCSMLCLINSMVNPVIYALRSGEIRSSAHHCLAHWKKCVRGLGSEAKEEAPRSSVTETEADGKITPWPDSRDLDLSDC

`CCCCCCC(C)(C)c1cc(OC)c([C@H]2C=C(CNC(=O)CCCCCCNC(=O)c3ccc(=O)n(S(=O)(=O)c4cccc(C(=O)NCC5CN(CCOCCNc6ccc([N+](=O)[O-])c7nonc67)N=N5)c4)c3)[C@H]3C[C@@H]2C3(C)C)c(OC)c1` (some centres not stated) [US20250325711, Example 3] and `COc1cc(C(C)(C)CCCCCCN=[N+]=[N-])cc(OC)c1[C@H]1C=C(CNC(=O)CCCCCCNC(=O)c2ccc(=O)n(S(=O)(=O)c3cccc(C(=O)NCC4CN(CCOCCNc5ccc([N+](=O)[O-])c6nonc56)N=N4)c3)c2)[C@H]2C[C@@H]1C2(C)C` (some centres not stated) [US20250325711, Example 2] are within 1.5-fold of each other in Kd: 0.0242 µM for the first, 0.0229 µM for the second.

`COc1cc(C(C)(C)CCCCCCN=[N+]=[N-])cc(OC)c1[C@H]1C=C(CNC(=O)CCCCNC(=O)c2ccc(=O)n(S(=O)(=O)c3cccc(C(=O)NCCC4CN(CCOCCNc5ccc([N+](=O)[O-])c6nonc56)N=N4)c3)c2)[C@H]2C[C@@H]1C2(C)C` (some centres not stated) [US20250325711, Example 1] and `COc1cc(C(C)(C)CCCCCCN=[N+]=[N-])cc(OC)c1[C@H]1C=C(CNC(=O)CCCCCCCCNC(=O)c2ccc(=O)n(S(=O)(=O)c3cccc(C(=O)NCC4CN(CCOCCNc5ccc([N+](=O)[O-])c6nonc56)N=N4)c3)c2)[C@H]2C[C@@H]1C2(C)C` (some centres not stated) [US20250325711, Example 7] are within 1.5-fold of each other in Kd: 0.0091 µM for the first, 0.0089 µM for the second.

Compared with `COc1cc(C(C)(C)CCCCCCN=[N+]=[N-])cc(OC)c1[C@H]1C=C(CNC(=O)CCCCCCNC(=O)c2ccc(S(=O)(=O)N(CC#N)C(=O)CCC3CN(CCOCCNc4ccc([N+](=O)[O-])c5nonc45)N=N3)cc2)[C@H]2C[C@@H]1C2(C)C` (some centres not stated) [US20250325711, Example 11], `COc1cc(C(C)(C)CCCCCCN=[N+]=[N-])cc(OC)c1[C@H]1C=C(CNC(=O)CCCCCCNC(=O)c2ccc(=O)n(S(=O)(=O)c3cccc(C(=O)NCC4CN(CCOCCOCCOCCOCCNc5ccc([N+](=O)[O-])c6nonc56)N=N4)c3)c2)[C@H]2C[C@@H]1C2(C)C` (some centres not stated) [US20250325711, Example 4] is 34-fold lower in Kd: 0.152 µM for the first, 0.0045 µM for the second. The second binds more tightly here.

`CCN(CC)c1ccc2c(c1)OC(=O)C(/C=C/c1ccc(S(=O)(=O)[O-])c[n+]1CCCCCC(=O)NCCOCCN1CC(CNC(=O)C3=CC(S(=O)(=O)N4CC(C(=O)NCCCCCCC(=O)NCC5=C[C@H](c6c(OC)cc(C(C)(C)CCCCCCN=[N+]=[N-])cc6OC)[C@@H]6C[C@H]5C6(C)C)C=CC4=O)CC=C3)N=N1)C2` (some centres not stated) [US20250325711, Example 5] gave a Kd of 0.059 µM.
